From patent US11453697B1, “Cyclic di-nucleotide compounds as sting agonists” (Merck Sharp & Dohme Corp., priority 2015, dated 2022)

Experiments:
full-length HAQ STING = full-length HAQ STING (Homo sapiens (Human), UniProt Q86WV6, G230A/H232R/R293Q/R71H); assay: 3H-cGAMP filtration binding assay (HAQ STING); settings: competition with tritiated cGAMP, HAQ STING membrane; read-out: EC50 (nM), 3H-cGAMP filtration binding assay for HAQ STING
How it was run: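 Competition binding of compounds against 8 nM [3H]cGAMP working stock on Hi-Five cell membranes overexpressing full-length HAQ STING; compound and membrane preincubated 60 min at RT before ligand addition. Bound radioactivity read by filtration and scintillation counting; percent activity normalized to controls, EC50 from 4-parameter fit.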

[1] = test system: IFN-β secretion in THP1 cells; assay: IFN-β secretion in THP1 cell culture (5 h); format: cell-based, human; settings: IFN-β secretion in THP1 cell culture, 5 h; compound at 30 μM; percent activation relative to 2′3′-cGAMP
How it was run: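 THP1 cells incubated with compound for 5 h at 37 °C, 5% CO2, and secreted IFN-β in supernatant quantified by AlphaLISA. Percent effect normalised to 30 uM cGAMP positive control and 0.3% DMSO. EC50 from 4-parameter fit.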

Sequence of full-length HAQ STING (Q86WV6 other isoform, or with tags, fused parts or gaps, stated change not applied): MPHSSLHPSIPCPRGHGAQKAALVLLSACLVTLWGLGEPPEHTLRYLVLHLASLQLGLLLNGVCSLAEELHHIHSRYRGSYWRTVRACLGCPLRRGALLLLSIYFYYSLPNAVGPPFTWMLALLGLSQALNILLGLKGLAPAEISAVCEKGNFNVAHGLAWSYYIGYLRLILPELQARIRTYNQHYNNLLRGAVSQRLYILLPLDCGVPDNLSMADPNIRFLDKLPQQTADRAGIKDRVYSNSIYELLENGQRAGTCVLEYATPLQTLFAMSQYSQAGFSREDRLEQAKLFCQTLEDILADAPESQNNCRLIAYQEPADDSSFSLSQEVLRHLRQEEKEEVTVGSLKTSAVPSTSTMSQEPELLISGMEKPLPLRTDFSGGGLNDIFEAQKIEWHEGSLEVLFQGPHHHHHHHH

EC50 (full-length HAQ STING) [nM] | SMILES | % Effect at 30 μM relative to 2′3′-cGAMP [1] [%]
24.6 | Nc1nc2c(ncn2[C@@H]2O[C@@H]3COP(=O)(O)O[C@H]4[C@@H](O)[C@H](n5cnc6c(N)nc(F)nc65)O[C@@H]4COP(=O)(O)O[C@@H]2[C@@H]3O)c(=O)[nH]1 [Example 34, 2-amino-9-[(5R,7R,8R,12aR,14R,15R,15aS,16R)-14-(6-amino-2-fluoro-9H-purin-9-yl)-2,10,15,16-tetrahydroxy-2,10-dioxidooctahydro-12H-5,8-methanofuro[3,2-l][1,3,6,9,11,2,10]pentaoxadiphosphacyclotetradecin-7-yl]-1,9-dihydro-6H-purin-6-one] | 125
112 | Nc1nc2c(ncn2[C@@H]2O[C@@H]3COP(=O)(O)OC4C(O)[C@H](c5cnn6c(=O)[nH]cnc56)O[C@@H]4COP(=O)(O)OC2C3O)c(=O)[nH]1 (stereo in doubt) [Example 321, 8-[(5R,7R,8R,12aR,14S,15S,15aS,16R)-7-(2-amino-6-oxo-1,6-dihydro-9H-purin-9-yl)-2,10,15,16-tetrahydroxy-2,10-dioxidooctahydro-12H-5,8-methanofuro[3,2-l][1,3,6,9,11,2,10]pentaoxadiphosphacyclotetradecin-14-yl]pyrazolo[1,5-a][1,3,5]triazin-4(3H)-one] | 36
< 1 | Nc1nc2c(ncn2[C@@H]2O[C@@H]3COP(=O)(O)O[C@H]4[C@@H](F)[C@H](n5cnc6c(=O)[nH]cnc65)O[C@@H]4COP(=O)(O)O[C@@H]2[C@@H]3F)c(=O)[nH]1 [Example 314, 2-amino-9-[(5R,7R,8S,12aR,14R,15R,15aR,16R)-15,16-difluoro-2,10-dihydroxy-2,10-dioxido-14-(6-oxo-1,6-dihydro-9H-purin-9-yl)octahydro-12H-5,8-methanofuro [3,2-l][1,3,6,9,11,2,10]pentaoxadiphosphacyclotetradecin-7-yl]-1,9-dihydro-6H-purin-6-one] | 143
30 | Nc1nc2c(ncn2[C@@H]2O[C@@H]3COP(=O)(O)O[C@H]4[C@@H](O)[C@H](c5n[nH]c6c(N)ncnc56)O[C@@H]4COP(=O)(O)O[C@@H]2[C@@H]3O)c(=O)[nH]1 [Example 49, 2-amino-9-[(5R,7R,8R,12aR,14S,15S,15aS,16R)-14-(7-amino-1H-pyrazolo[4,3-d]pyrimidin-3-yl)-2,10,15,16-tetrahydroxy-2,10-dioxidooctahydro-12H-5,8-methanofuro[3,2-l][1,3,6,9,11,2,10]pentaoxadiphosphacyclotetradecin-7-yl]-1,9-dihydro-6H-purin-6-one] | 74
378 | Nc1nc2c(ncn2[C@@H]2O[C@@H]3COP(=O)(O)O[C@H]4[C@H](Cl)[C@H](n5cnc6c(N)ncnc65)O[C@@H]4COP(=O)(O)O[C@@H]2[C@@H]3O)c(=O)[nH]1 [Example 15, 2-amino-9-[(5R,7R,8R,12aR,14R,15S,15aR,16R)-14-(6-amino-9H-purin-9-yl)-15-chloro-2,10,16-trihydroxy-2,10-dioxidooctahydro-12H-5,8-methanofuro[3,2-l][1,3,6,9,11,2,10]pentaoxadiphosphacyclotetradecin-7-yl]-1,9-dihydro-6H-purin-6-one] | 39
2.6 | Nc1ncnc2c1ncn2[C@@H]1O[C@@H]2COP(=O)(O)O[C@H]3[C@@H](F)[C@H](n4cnc5c(=O)[nH]cnc54)O[C@@H]3COP(=O)(O)O[C@@H]1[C@@H]2O [Example 292, 9-[(5R,7R,8R,12aR,14R,15R,15aR,16R)-7-(6-amino-9H-purin-9-yl)-15-fluoro-2,10,16-trihydroxy-2,10-dioxidooctahydro-12H-5,8-methanofuro[3,2-l][1,3,6,9,11,2,10]pentaoxadiphosphacyclotetradecin-14-yl]-1,9-dihydro-6H-purin-6-one] | 114

SMILES | EC50 (full-length HAQ STING) [nM] | % Effect at 30 μM relative to 2′3′-cGAMP [1] [%]
O=c1[nH]cnc2c1ncn2[C@@H]1O[C@@H]2COP(=O)(O)O[C@@H]3C[C@@H](COP(=O)(O)O[C@H]2[C@H]1O)O[C@H]3n1cnc2c(=O)[nH]cnc21 [Example 333] | 45.9 | 10
